Test results published in patent publication US12514267B2, “Oligosaccharide compositions for use as animal feed and methods of producing thereof” (DSM Nutritional Products, LLC, priority 2015, dated 2026).

Test system: nursery pigs
Assay: Growth performance of nursery pigs: 0-42d BWG, ADG, ADFI, FCR, with and without Mecadox (Examples 34/35)
Format: in vivo
Procedure: Pigs: Approximately 3,240 pigs were placed in three rooms at a nursery farm with 27 pigs per pen and 15 pens per treatment using a randomized complete block design (a total of 8 treatments across 40 pens in each of 3 rooms). All pens were balanced with 14 gilts and 13 barrows. At weaning, weight, age and sow farm source were recorded. At weaning, pigs were placed with the same number of pigs from each sow farm per pen.
Allotment: Prior to allotment and each weighing event, standard weights were placed on each corner of the scale to ensure that the scale was correctly calibrated. At placement, the average weight of the pigs in each pen were determined and the data was provided as soon as possible for treatment allotment. At weaning, pens were ranked by average weight and weight blocks and pens were assigned to the ranked weights. Treatments were then randomly assigned within weight blocks. When the treatment assignments were done, pen assignments were provided also as soon as possible, and dietary treatments information was entered into the feeding system. Pigs were granted free access to feed and water throughout the trial.
Schedule: At arrival, the pigs were allotted to pens. A common pelleted diet was fed to all pigs for 7 days. This diet contained 55 ppm of Mecadox (50 g/ton). Dietary treatments were fed from day 7 to the end of the nursery phase (approximately 55 lb). Pens were allotted to dietary treatments on day 7. Diets were fed in two phases with the first phase from day 7 to 21 after weaning and the second phase from day 21 to the end of the nursery phase (day 21 to 42 after weaning).
Treatments: Dietary treatments were randomly assigned to 40 pens in each of 3 rooms for 5 replications per room and 15 replications total. The 8 treatments were structured as a 2×4 factorial with two diet types (with and without antibiotic; 55 ppm of Mecadox) and four levels of gluco-oligosaccharide (0, 200, 400 or 600 ppm). The gluco-oligosaccharides were prepared according to the procedures set forth in Examples above. The gluco-oligosaccharides were provided on a corn meal carrier, as described in Example 18, such that the 600 ppm dose was obtained with a 0.25% final diet inclusion rate (5 lb premix per ton final feed). All diets contained the same growth promoting levels of Cu and Zn at 200 ppm Cu and 2,000 ppm Zn, in the phase 2 diets and 200 ppm Cu in the phase 3 diet. The diets containing 0 and 0.25% of the premix containing the gluco-oligosaccharides were blended to form the intermediate treatments.
Diet Preparation: Diets were fed in meal form. The four diets required were the control diets for each diet type and the diets containing 0.25% gluco-oligosaccharide premix. The actual oligosaccharide levels in the test were 0, 200, 400, and 600 ppm with a carrier used such that the premix at 0.25% (5 lb/ton) will provide 600 ppm oligosaccharide.
Live Animal Data Collection: Pigs were weighed, counted and feed disappearance determined every 7 days during the experiment. Prior to each weighing event standard weights were placed on each corner of the scale to ensure proper calibration of the scale. Pig inventory, weight, removal and feed intake data were recorded and maintained throughout the trial. Data were collected on the standard data collection spreadsheet.
Statistical analysis: Pens were randomly allotted to treatments using body weight as a blocking factor. Weight block was added to the model as a random effect. Main effects and interaction between diet type and gluco-oligosaccharide level were determined. Data was analyzed for linear and quadratic effect of gluco-oligosaccharide levels.
The BWG benefit, ADG benefit, ADFI benefit, and FCR benefit were calculated for 0-42 days by taking the ratio of the respective values with respect to their corresponding controls and performing linear regression to determine the dose-effect of the gluco-oligosaccharide, resulting in the following regression equations set forth in Table 12 below. […]

[1] = 0-42d, Mecadox 55 ppm, Oligo 0 ppm
[2] = 0-42d, from regression equations, antibiotic growth promoter alone
[3] = nursery pigs, vs control, Mecadox 55 ppm, gluco-oligosaccharide 600 ppm without antibiotic (from regression)

SMILES: COC(=O)N/N=C/c1c[n+]([O-])c2ccccc2[n+]1[O-] [Mecadox]
- ADFI [1]: 1.37 lbs/day
- ADG [1]: 0.93 lbs/day
- BWG [1]: 40.69 lbs
- FCR [1]: 1.47 lbs/lbs
- ADFI Benefit [2]: 2.4%
- ADG Benefit [2]: 3.2%
- BWG Benefit [2]: 2.5%
- FCR Benefit [2]: −0.2%
- 0-42d FCR (nursery pigs, vs control, Mecadox 55 ppm, gluco-oligosaccharide 600 ppm): did not improve
- improved 0-42d ADG [3]: 3.2%
- improved 0-42d ADGI [3]: 2.4%
- improved 0-42d BWG [3]: 2.5%
